In article PMC11637875, “Discovery of novel PARP1/NRP1 dual-targeting inhibitors with strong antitumor potency” (Frontiers in Pharmacology, 2024):

Columns and labels:
PARP10 = PARP10 (Homo sapiens, UniProt Q53GL7); test: Selectivity profile (other isoforms of PARP and NRP family); assay type: biochemical
MER = MER (Homo sapiens, UniProt Q12866); test: Selectivity profile (123 kinase panel); assay type: biochemical
CK1γ2 = CK1γ2 (Homo sapiens, UniProt P78368); test: Selectivity profile (123 kinase panel); assay type: biochemical
FLT1 = FLT1 (Homo sapiens, UniProt P17948); test: Selectivity profile (123 kinase panel); assay type: biochemical
GLK = GLK (Homo sapiens, UniProt Q8IVH8); test: Selectivity profile (123 kinase panel); assay type: biochemical
LOK = LOK (Homo sapiens, UniProt O94804); test: Selectivity profile (123 kinase panel); assay type: biochemical
LOK, sequence (O94804 whole entry): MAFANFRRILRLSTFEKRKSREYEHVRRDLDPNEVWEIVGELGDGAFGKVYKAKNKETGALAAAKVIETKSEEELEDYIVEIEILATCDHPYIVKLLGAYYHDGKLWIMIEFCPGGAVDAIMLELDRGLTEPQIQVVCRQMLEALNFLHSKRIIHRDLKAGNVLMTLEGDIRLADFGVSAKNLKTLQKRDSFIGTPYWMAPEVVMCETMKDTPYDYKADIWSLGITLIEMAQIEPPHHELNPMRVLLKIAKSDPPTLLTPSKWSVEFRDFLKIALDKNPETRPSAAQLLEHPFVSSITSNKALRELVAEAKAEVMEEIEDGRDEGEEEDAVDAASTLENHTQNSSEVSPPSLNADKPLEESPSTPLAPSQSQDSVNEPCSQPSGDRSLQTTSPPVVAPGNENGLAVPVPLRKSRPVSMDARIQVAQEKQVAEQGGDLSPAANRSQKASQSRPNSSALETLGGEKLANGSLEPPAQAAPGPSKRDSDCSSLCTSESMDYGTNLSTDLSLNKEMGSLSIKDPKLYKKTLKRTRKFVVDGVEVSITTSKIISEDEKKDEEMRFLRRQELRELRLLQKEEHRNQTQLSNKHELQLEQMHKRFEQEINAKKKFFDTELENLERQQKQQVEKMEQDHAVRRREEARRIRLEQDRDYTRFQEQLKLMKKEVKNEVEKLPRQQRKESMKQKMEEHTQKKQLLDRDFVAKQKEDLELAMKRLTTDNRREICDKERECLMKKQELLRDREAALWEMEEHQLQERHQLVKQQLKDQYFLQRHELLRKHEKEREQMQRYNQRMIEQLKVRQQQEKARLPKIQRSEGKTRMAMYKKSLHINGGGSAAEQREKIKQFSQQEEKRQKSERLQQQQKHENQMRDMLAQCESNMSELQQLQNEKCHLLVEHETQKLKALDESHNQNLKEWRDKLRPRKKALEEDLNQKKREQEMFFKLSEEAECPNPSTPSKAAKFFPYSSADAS

AKT2 = AKT2 (Homo sapiens, UniProt P31751); test: Selectivity profile (123 kinase panel); assay type: biochemical
AKT2, sequence (P31751 whole entry): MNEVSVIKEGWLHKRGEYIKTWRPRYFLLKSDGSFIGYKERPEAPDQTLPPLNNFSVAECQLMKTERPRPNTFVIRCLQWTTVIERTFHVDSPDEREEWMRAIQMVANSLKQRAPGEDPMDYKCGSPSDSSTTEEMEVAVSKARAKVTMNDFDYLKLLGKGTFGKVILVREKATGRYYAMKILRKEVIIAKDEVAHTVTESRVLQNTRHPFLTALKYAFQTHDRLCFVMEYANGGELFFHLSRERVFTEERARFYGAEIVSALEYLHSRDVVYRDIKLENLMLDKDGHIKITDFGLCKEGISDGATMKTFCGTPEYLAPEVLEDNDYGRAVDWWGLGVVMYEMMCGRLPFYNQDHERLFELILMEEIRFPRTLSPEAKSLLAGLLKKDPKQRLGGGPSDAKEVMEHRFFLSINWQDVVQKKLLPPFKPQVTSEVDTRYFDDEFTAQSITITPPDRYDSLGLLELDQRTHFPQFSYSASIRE

GSK3α = GSK3α (Homo sapiens, UniProt P49840); test: Selectivity profile (123 kinase panel); assay type: biochemical
JAK2 = JAK2 (Homo sapiens, UniProt O60674); test: Selectivity profile (123 kinase panel); assay type: biochemical
JAK2, sequence (O60674 whole entry): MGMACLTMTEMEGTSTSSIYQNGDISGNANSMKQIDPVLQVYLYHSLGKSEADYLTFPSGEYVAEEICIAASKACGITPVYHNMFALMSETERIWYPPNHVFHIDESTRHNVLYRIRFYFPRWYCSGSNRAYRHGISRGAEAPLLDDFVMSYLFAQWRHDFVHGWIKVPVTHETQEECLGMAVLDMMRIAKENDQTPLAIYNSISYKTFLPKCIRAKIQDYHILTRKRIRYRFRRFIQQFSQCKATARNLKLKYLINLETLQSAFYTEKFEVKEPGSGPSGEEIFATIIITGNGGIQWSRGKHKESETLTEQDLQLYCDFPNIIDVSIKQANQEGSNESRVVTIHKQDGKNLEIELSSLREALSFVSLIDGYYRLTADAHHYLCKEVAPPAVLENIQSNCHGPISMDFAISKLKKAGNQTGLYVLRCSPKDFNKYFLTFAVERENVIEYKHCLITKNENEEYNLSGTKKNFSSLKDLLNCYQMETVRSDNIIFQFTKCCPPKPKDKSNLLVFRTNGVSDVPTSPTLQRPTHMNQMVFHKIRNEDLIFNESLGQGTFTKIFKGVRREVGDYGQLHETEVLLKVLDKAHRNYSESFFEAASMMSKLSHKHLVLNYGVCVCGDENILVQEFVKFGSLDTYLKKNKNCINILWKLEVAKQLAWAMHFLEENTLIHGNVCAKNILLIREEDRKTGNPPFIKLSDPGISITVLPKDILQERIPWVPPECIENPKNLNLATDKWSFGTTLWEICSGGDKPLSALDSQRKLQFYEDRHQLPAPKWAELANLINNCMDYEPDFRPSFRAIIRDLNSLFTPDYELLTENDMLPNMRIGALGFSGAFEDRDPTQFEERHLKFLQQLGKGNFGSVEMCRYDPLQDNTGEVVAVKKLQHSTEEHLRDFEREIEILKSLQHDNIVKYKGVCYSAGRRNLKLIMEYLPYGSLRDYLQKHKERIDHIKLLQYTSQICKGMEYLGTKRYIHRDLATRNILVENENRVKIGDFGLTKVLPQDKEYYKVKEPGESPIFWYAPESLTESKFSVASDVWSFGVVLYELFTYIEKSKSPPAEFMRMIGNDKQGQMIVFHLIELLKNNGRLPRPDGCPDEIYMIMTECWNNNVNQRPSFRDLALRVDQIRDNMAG

AMPKα2/β1/γ1 = AMPKα2/β1/γ1 (Homo sapiens, UniProt P54619+P54646+Q9Y478); test: Selectivity profile (123 kinase panel); assay type: biochemical
PARP14 = PARP14 (Homo sapiens, UniProt Q460N5); test: Selectivity profile (other isoforms of PARP and NRP family); assay type: biochemical
NEK1 = NEK1 (Homo sapiens, UniProt Q96PY6); test: Selectivity profile (123 kinase panel); assay type: biochemical
EPHB1 = EPHB1 (Homo sapiens, UniProt P54762); test: Selectivity profile (123 kinase panel); assay type: biochemical
FES = FES (Homo sapiens, UniProt P07332); test: Selectivity profile (123 kinase panel); assay type: biochemical
CSK = CSK (Homo sapiens, UniProt P41240); test: Selectivity profile (123 kinase panel); assay type: biochemical
EPHA4 = EPHA4 (Homo sapiens, UniProt P54764); test: Selectivity profile (123 kinase panel); assay type: biochemical
KDR = KDR (Homo sapiens, UniProt P35968); test: Selectivity profile (123 kinase panel); assay type: biochemical
DYRK4 = DYRK4 (Homo sapiens, UniProt Q9NR20); test: Selectivity profile (123 kinase panel); assay type: biochemical
DYRK4, sequence (Q9NR20 whole entry): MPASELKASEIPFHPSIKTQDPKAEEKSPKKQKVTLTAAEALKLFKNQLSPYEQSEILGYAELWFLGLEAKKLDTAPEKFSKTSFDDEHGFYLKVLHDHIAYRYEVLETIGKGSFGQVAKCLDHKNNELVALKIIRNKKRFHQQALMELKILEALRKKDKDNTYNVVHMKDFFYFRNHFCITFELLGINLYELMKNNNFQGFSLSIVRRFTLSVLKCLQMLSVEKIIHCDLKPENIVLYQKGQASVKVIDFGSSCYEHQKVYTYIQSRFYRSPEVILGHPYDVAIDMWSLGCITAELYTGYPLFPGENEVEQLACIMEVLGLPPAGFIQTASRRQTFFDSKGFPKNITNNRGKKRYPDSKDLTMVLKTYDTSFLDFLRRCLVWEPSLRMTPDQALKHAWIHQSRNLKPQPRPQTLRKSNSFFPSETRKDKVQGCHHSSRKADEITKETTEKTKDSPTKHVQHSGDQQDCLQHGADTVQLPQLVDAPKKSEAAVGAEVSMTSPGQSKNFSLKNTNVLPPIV

BRK = BRK (Homo sapiens, UniProt Q13882); test: Selectivity profile (123 kinase panel); assay type: biochemical
BRK, sequence (Q13882 whole entry): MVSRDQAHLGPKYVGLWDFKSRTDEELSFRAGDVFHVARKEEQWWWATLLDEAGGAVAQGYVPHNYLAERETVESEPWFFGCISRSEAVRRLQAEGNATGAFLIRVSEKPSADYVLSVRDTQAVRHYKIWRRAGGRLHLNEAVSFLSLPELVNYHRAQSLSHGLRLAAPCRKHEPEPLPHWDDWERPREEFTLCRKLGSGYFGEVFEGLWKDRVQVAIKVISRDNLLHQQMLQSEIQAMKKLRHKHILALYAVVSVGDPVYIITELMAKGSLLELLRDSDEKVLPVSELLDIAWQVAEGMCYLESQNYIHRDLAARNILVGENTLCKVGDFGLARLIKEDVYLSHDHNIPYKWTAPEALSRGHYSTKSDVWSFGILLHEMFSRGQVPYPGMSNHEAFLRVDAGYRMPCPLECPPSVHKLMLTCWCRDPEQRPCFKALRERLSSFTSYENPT

HCK = HCK (Homo sapiens, UniProt P08631); test: Selectivity profile (123 kinase panel); assay type: biochemical
DYRK1A = DYRK1A (Homo sapiens, UniProt Q13627); test: Selectivity profile (123 kinase panel); assay type: biochemical
CK1α = CK1α (Homo sapiens, UniProt P48729); test: Selectivity profile (123 kinase panel); assay type: biochemical
CaMK1α = CaMK1α (Homo sapiens, UniProt Q14012); test: Selectivity profile (123 kinase panel); assay type: biochemical
DNA-PK = DNA-PK (Homo sapiens, UniProt P78527); test: Selectivity profile (123 kinase panel); assay type: biochemical
DCAMKL1 = DCAMKL1 (Homo sapiens, UniProt O15075); test: Selectivity profile (123 kinase panel); assay type: biochemical
HEL-299 = test: Cytotoxicity on normal human cells (MTT); assay type: cell-based; conditions: HEL-299 normal human cells
Procedure: (§1) Cell viability was measured by MTT assays. MDA-MB-231, MCF-10A, L02, FHC, PNT1A, HEL-299, and HEK-293 cell lines were seeded in 96-well plates at 5 ×10^4 cells/well and incubated overnight. Different concentrations of PPNR1-5 or positive control were then added to each well and cultured at 37°C for 72 h. Afterward, the medium was removed. MTT (5 mg/mL) was dissolved in phosphate-buffered saline (PBS) and filter-sterilized, and then, 20 μL of the prepared MTT solution was added to each well, and the cells were incubated for another 4 h until a purple precipitate was visible. The supernatant was removed by centrifugation, and DMSO (150 μL/well) was added to dissolve the insoluble crystals. The absorbance was determined using an enzyme-linked immunosorbent assay reader at a test wavelength of 570 nm. The assays were performed three times in a parallel manner. The non-linear regression was used to plot a Dose-Response-Inhibition to determine the value of the IC50. The cell inhibition rate was calculated at 2 μM concentration of compound treatment. The data were analyzed using GraphPad Prism 9 software.

L02 = test: Cytotoxicity on normal human cells (MTT); assay type: cell-based
Procedure: as §1

PNT1A = test: Cytotoxicity on normal human cells (MTT); assay type: cell-based
Procedure: as §1

FHC = test: Cytotoxicity on normal human cells (MTT); assay type: cell-based
Procedure: as §1

HEK-293 = test: Cytotoxicity on normal human cells (MTT); assay type: cell-based; conditions: HEK293, HEK-293 normal human cells
Procedure: as §1

MCF-10A = test: Cytotoxicity on normal human cells (MTT); assay type: cell-based; conditions: MCF-10A normal human mammary epithelial cells
Procedure: as §1

MARK3 = MARK3 (Homo sapiens, UniProt P27448); test: Selectivity profile (123 kinase panel); assay type: biochemical
MARK3, sequence (P27448 whole entry): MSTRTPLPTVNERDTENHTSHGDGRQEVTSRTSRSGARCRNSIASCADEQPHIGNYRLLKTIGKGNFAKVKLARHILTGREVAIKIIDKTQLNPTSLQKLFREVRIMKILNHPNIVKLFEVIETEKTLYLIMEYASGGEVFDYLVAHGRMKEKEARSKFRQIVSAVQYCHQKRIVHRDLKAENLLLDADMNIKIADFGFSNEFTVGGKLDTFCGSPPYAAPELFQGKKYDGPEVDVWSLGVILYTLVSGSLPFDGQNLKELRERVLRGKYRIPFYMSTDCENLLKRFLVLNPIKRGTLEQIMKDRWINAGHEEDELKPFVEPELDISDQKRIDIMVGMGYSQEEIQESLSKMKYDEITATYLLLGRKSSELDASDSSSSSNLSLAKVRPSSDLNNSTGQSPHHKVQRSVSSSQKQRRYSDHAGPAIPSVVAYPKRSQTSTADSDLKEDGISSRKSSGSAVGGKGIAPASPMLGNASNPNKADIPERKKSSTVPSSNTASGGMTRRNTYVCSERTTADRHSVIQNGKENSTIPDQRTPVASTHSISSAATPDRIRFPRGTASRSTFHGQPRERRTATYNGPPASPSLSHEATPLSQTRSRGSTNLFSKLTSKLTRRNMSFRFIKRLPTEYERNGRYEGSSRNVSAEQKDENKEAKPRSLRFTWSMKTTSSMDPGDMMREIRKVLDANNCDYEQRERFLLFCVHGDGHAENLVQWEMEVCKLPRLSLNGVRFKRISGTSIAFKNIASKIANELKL

FGFR2 = FGFR2 (Homo sapiens, UniProt P21802); test: Selectivity profile (123 kinase panel); assay type: biochemical
CK1γ3 = CK1γ3 (Homo sapiens, UniProt Q9Y6M4); test: Selectivity profile (123 kinase panel); assay type: biochemical
DYRK3 = DYRK3 (Homo sapiens, UniProt O43781); test: Selectivity profile (123 kinase panel); assay type: biochemical
DYRK3, sequence (O43781 whole entry): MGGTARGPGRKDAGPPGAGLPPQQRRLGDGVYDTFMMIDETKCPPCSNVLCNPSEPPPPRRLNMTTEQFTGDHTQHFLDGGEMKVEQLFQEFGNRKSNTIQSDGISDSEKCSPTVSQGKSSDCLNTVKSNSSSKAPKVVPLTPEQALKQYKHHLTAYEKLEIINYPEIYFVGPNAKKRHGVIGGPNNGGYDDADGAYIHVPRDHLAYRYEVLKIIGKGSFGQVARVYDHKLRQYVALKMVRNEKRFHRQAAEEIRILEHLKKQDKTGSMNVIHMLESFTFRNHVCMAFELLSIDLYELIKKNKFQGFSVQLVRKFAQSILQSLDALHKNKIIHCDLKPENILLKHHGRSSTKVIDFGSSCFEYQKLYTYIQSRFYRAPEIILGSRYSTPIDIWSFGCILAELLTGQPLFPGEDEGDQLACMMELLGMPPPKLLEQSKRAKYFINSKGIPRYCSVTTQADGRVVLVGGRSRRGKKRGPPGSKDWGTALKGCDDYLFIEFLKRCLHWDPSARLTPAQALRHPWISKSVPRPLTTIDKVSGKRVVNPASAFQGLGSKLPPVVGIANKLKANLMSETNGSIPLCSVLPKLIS

MSK1 = MSK1 (Homo sapiens, UniProt O75582); test: Selectivity profile (123 kinase panel); assay type: biochemical
EPHA1 = EPHA1 (Homo sapiens, UniProt P21709); test: Selectivity profile (123 kinase panel); assay type: biochemical

IC50 (PARP10): > 10 µM | IC50 (MER): > 10 µM | IC50 (CK1γ2): > 10 µM | IC50 (FLT1): > 10 µM | IC50 (GLK): > 10 µM | IC50 (LOK): > 10 µM | IC50 (AKT2): > 10 µM | IC50 (GSK3α): > 10 µM | IC50 (JAK2): > 10 µM | IC50 (AMPKα2/β1/γ1): > 10 µM | IC50 (PARP14): > 10 µM | IC50 (NEK1): > 10 µM | IC50 (EPHB1): > 10 µM | IC50 (FES): > 10 µM | IC50 (CSK): > 10 µM | IC50 (EPHA4): > 10 µM | IC50 (KDR): > 10 µM | IC50 (DYRK4): > 10 µM | IC50 (BRK): > 10 µM | IC50 (HCK): > 10 µM | IC50 (DYRK1A): > 10 µM | IC50 (CK1α): > 10 µM | IC50 (CaMK1α): > 10 µM | IC50 (DNA-PK): > 10 µM | IC50 (DCAMKL1): > 10 µM | IC50 (MARK3): > 10 µM | IC50 (FGFR2): > 10 µM | IC50 (CK1γ3): > 10 µM | IC50 (DYRK3): > 10 µM | IC50 (MSK1): > 10 µM | IC50 (EPHA1): > 10 µM
SMILES: NC(N)=NCCC[C@H](NCN1CCN(C(=O)c2cc(Cc3n[nH]c(=O)c4ccccc34)ccc2F)CC1)C(=O)O [PPNR-4]
IC50 (HEL-299): > 10 µM | IC50 (L02): > 10 µM | IC50 (PNT1A): > 10 µM | IC50 (FHC): > 10 µM | IC50 (HEK-293): > 10 µM | IC50 (MCF-10A): > 10 µM
